# Test results as given in patent publication US9139569B2, “Fused tricyclic aryl compounds useful for the treatment of viral diseases” (Merck Sharp & Dohme Corp., priority 2009, dated 2015).
# Experiments:
# HCV replicon genotype 1a = assay: Cell-based HCV replicon assay, genotype 1a; settings: Hepatitis C virus, 72 h, HCV replicon cells, replicon RNA by real time PCR on day 3, read-out: EC50 (nM) (gt1a)
# Description: (§1) To measure cell-based anti-HCV activity of selected compounds of the present invention, replicon cells were seeded at 5000 cells/well in 96-well collagen I-coated Nunc plates in the presence of the test compound. Various concentrations of test compound, typically in 10 serial 2-fold dilutions, were added to the assay mixture, with the starting concentration ranging from 250 μM to 1 μM. The final concentration of DMSO was 0.5%, fetal bovine serum was 5%, in the assay media. Cells were harvested on day 3 by the addition of 1× cell lysis buffer (Ambion cat #8721). The replicon RNA level was measured using real time PCR (Taqman assay). The amplicon was located in 5B. The PCR primers were: 5B.2F, ATGGACAGGCGCCCTGA (SEQ. ID NO. 1); 5B.2R, […] (SEQ. ID NO. 2); the probe sequence was FAM-labeled CACGCCATGCGCTGCGG (SEQ. ID NO. 3). GAPDH RNA was used as endogenous control and was amplified in the same reaction as NS5B (multiplex PCR) using primers and VIC-labeled probe recommended by the manufacturer (PE Applied Biosystem). The real-time RT-PCR reactions were run on ABI PRISM 7900HT Sequence Detection System using the following program: 48° C. for 30 min, 95° C. for 10 min, 40 cycles of 95° C. for 15 sec, 60° C. for 1 min. The ACT values (CT5B-CTGAPDH) were plotted against the concentration of test compound and fitted to the sigmoid dose-response model using XLfit4 (MDL). EC50 was defined as the concentration of inhibitor necessary to achieve ΔCT=1 over the projected baseline; EC90 the concentration necessary to achieve ΔCT=3.2 over the baseline. Alternatively, to quantitate the absolute amount of replicon RNA, a standard curve was established by including serially diluted T7 transcripts of replicon RNA in the Taqman assay. All Taqman reagents were from PE Applied Biosystems. Such an assay procedure was described in detail in e.g. Malcolm et al., Antimicrobial Agents and Chemotherapy 50: 1013-1020 (2006).
# (§2) HCV replicon assay data was calculated for genotypes 1a, 1b, 2a and 3a for selected compounds of the present invention using this method and is provided in the table below.
# HCV replicon genotype 2a = assay: Cell-based HCV replicon assay, genotype 2a; settings: Hepatitis C virus, 72 h, HCV replicon cells, replicon RNA by real time PCR on day 3, read-out: EC50 (nM) (gt2a)
# Description: as §1, §2
# HCV replicon genotype 3a = assay: Cell-based HCV replicon assay, genotype 3a; settings: Hepatitis C virus, 72 h, HCV replicon cells, replicon RNA by real time PCR on day 3, read-out: EC50 (nM) (gt3a)
# Description: To measure cell-based anti-HCV activity of selected compounds of the present invention, replicon cells were seeded at 5000 cells/well in 96-well collagen I-coated Nunc plates in the presence of the test compound. Various concentrations of test compound, typically in 10 serial 2-fold dilutions, were added to the assay mixture, with the starting concentration ranging from 250 μM to 1 μM. The final concentration of DMSO was 0.5%, fetal bovine serum was 5%, in the assay media. Cells were harvested on day 3 by the addition of 1× cell lysis buffer (Ambion cat #8721). The replicon RNA level was measured using real time PCR (Taqman assay). The amplicon was located in 5B. The PCR primers were: 5B.2F, ATGGACAGGCGCCCTGA (SEQ. ID NO. 1); 5B.2R, […] (SEQ. ID NO. 2); the probe sequence was FAM-labeled CACGCCATGCGCTGCGG (SEQ. ID NO. 3). GAPDH RNA was used as endogenous control and was amplified in the same reaction as NS5B (multiplex PCR) using primers and VIC-labeled probe recommended by the manufacturer (PE Applied Biosystem). […] Alternatively, to quantitate the absolute amount of replicon RNA, a standard curve was established by including serially diluted T7 transcripts of replicon RNA in the Taqman assay. […]
# as §2
# HCV replicon genotype 1b = assay: Cell-based HCV replicon assay, genotype 1b; settings: Hepatitis C virus, 72 h, HCV replicon cells, replicon RNA by real time PCR on day 3, read-out: EC50 (nM) (gt1b)
# Description: as §1, §2
SMILES,EC50 (HCV replicon genotype 1a),EC50 (HCV replicon genotype 2a),EC50 (HCV replicon genotype 3a),EC50 (HCV replicon genotype 1b)
COC(=O)N[C@H](C(=O)N1CCC[C@H]1c1ncc(-c2ccc3cc4cc(-c5cnc([C@@H]6CCCN6C(=O)[C@@H](NC(=O)OC)C(C)C)[nH]5)ccc4cc3c2)[nH]1)C(C)C [Compound 36],0.001 nM,0.039 nM,0.01 nM,–
COC(=O)N[C@H](C(=O)N1CCC[C@H]1c1ncc(-c2ccc3nc4cc(-c5cnc([C@@H]6CCCN6C(=O)[C@@H](NC(=O)OC)C(C)C)[nH]5)ccc4cc3c2)[nH]1)C(C)C [Compound 37],0.047 nM,0.71 nM,0.04 nM,0.001 nM
COC(=O)N[C@H](C(=O)N1CCC[C@H]1c1ncc(-c2ccc3nc4cc(-c5cnc([C@@H]6CCCN6C(=O)[C@@H](NC(=O)OC)C(C)C)[nH]5)ccc4nc3c2)[nH]1)C(C)C [Compound 38],0.035 nM,–,–,0.015 nM
COC(=O)N[C@H](C(=O)N1CCC[C@H]1c1ncc(-c2cc3cc4oc(-c5cnc([C@@H]6CCCN6C(=O)[C@@H](NC(=O)OC)C(C)C)[nH]5)cc4cc3o2)[nH]1)C(C)C [Compound 39],0.02 nM,0.05 nM,–,0.001 nM
